Measurements reported in patent US20260028354A1, “TETRAHYDRONAPHTHALENE DERIVATIVES AS ESTROGEN RECEPTOR DEGRADERS” (REGENT OF THE UNIVERSITY OF MICHIGAN, priority 2022, published 2026).

Assay: Western blot analysis for "B" compounds
Assay type: cell-based
Details: read-out: Traditional Western Degradation Potency (DC50)
How it was run: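 Compound-treated cells lysed in RIPA buffer with protease inhibitors; equal protein (BCA) run on 10% SDS-PAGE, transferred to PVDF and probed with target antibodies. Band intensities quantified by densitometry and normalized to GAPDH.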

DC50 [nM] | Molecule
10 to 100 | O=C1CCC(N2C(=O)c3cc4c(cc3C2=O)CN(CC2CCC(N3CCN(c5ccc([C@@H]6c7ccc(O)cc7CC[C@@H]6c6ccccc6)cc5)CC3)CC2)C4)C(=O)N1 (stereo partly drawn) [Compound B83, 2-(2,6-dioxopiperidin-3-yl)-6-((4-(4-(4-((1R,2S)-6-hydroxy-2-phenyl-1,2,3,4-tetrahydronaphthalen-1-yl)phenyl)piperazin-1-yl)cyclohcxyl)mcthyl)-6,7-dihydropyrrolo[3,4-f]isoindolc-1,3(2H,5H)-dione]
> 100 | O=C1CCC(N2C(=O)c3cc4c(cc3C2=O)CC2(C4)CN(C(=O)CN3CC(Oc4ccc([C@@H]5c6ccc(O)cc6CC[C@@H]5c5ccccc5)cc4)C3)C2)C(=O)N1 (stereo partly drawn) [Compound B299, 2′-(2,6-dioxopiperidin-3-yl)-1-(2-(3-(4-((1R,2S)-6-hydroxy-2-phenyl-1,2,3,4-tetrahydronaphthalen-1-yl)phenoxy)azetidin-1-yl)acetyl)-5′,7′-dihydro-1'H-spiro[azetidine-3,6′-cyclopenta[f]isoindole]-1′,3′(2'H)-dione]
10 to 100 | O=C1CCC(N2C(=O)c3cc4c(cc3C2=O)CN(CC2CCN(c3ccc([C@@H]5c6ccc(O)cc6CC[C@@H]5c5ccccc5)cc3)CC2)C4)C(=O)N1 (mixture of isomers) [Compound B2, 2-(2,6-dioxopiperidin-3-yl)-6-((1-(4-((1R,2S)-6-hydroxy-2-phenyl-1,2,3,4-tetrahydronaphthalen-1-yl)phenyl)piperidin-4-yl)methyl)-6,7-dihydropyrrolo[3,4-f]isoindole-1,3(2H,5H)-dione]
> 100 | O=C1CCC(N2C(=O)c3cc4c(cc3C2=O)CN(C2CCC(NC3CCN(c5ccc([C@@H]6c7ccc(O)cc7CC[C@@H]6c6ccccc6)cc5)CC3)CC2)C4)C(=O)N1 (stereo partly drawn) [Compound B84, 2-(2,6-dioxopiperidin-3-yl)-6-(4-((1-(4-((1R,2S)-6-hydroxy-2-phenyl-1,2,3,4-tetrahydronaphthalen-1-yl)phenyl)piperidin-4-yl)amino)cyclohexyl)-6,7-dihydropyrrolo[3,4-f]isoindole-1,3(2H,5H)-dione]
10 to 100 | O=C1CCC(N2C(=O)c3cc4c(cc3C2=O)CN(CC2CCN(CC3CN(c5ccc([C@@H]6c7ccc(O)cc7CC[C@@H]6c6ccccc6)cc5)C3)CC2)C4)C(=O)N1 (stereo partly drawn) [Compound B62, 2-(2,6-dioxopiperidin-3-yl)-6-((1-((1-(4-((1R,2S)-6-hydroxy-2-phenyl-1,2,3,4-tetrahydronaphthalen-1-yl)phenyl)azetidin-3-yl)methyl)piperidin-4-yl)methyl)-6,7-dihydropyrrolo[3,4-f]isoindole-1,3(2H,5H)-dione]
< 10 | O=C1CCC(N2Cc3cc4c(cc3C2=O)CN(C2CCN(CC3CCN(c5ccc([C@@H]6c7ccc(O)cc7CC[C@@H]6c6ccccc6)cc5)CC3)CC2)C4)C(=O)N1 (mixture of isomers) [Compound B3, 3-(6-(1-((1-(4-((1R,2S)-6-hydroxy-2-phenyl-1,2,3,4-tetrahydronaphthalen-1-yl)phenyl)piperidin-4-yl)methyl)piperidin-4-yl)-1-oxo-3,5,6,7-tetrahydropyrrolo[3,4-f]isoindol-2(1H)-yl)piperidine-2,6-dione]
10 to 100 | O=C1CCC(N2C(=O)c3cc4c(cc3C2=O)CN(CC(=O)N2CCC3(CCN(c5ccc([C@@H]6c7ccc(O)cc7CC[C@@H]6c6ccccc6)cc5)CC3)C2)C4)C(=O)N1 (mixture of isomers) [Compound B185, 2-(2,6-dioxopiperidin-3-yl)-6-(2-(8-(4-((1R,2S)-6-hydroxy-2-phenyl-1,2,3,4-tetrahydronaphthalen-1-yl)phenyl)-2,8-diazaspiro[4.5]decan-2-yl)-2-oxoethyl)-6,7-dihydropyrrolo[3,4-f]isoindole-1,3(2H,5H)-dione]
10 to 100 | O=C1CCC(N2C(=O)c3cc4c(cc3C2=O)CN(CC(=O)N2CCC3(CC2)CN(c2ccc([C@@H]5c6ccc(O)cc6CC[C@@H]5c5ccccc5)cc2)C3)C4)C(=O)N1 (mixture of isomers) [Compound B186, 2-(2,6-dioxopiperidin-3-yl)-6-(2-(2-(4-((1R,2S)-6-hydroxy-2-phenyl-1,2,3,4-tetrahydronaphthalen-1-yl)phenyl)-2,7-diazaspiro[3.5]nonan-7-yl)-2-oxoethyl)-6,7-dihydropyrrolo[3,4-f]isoindole-1,3(2H,5H)-dione]
> 100 | O=C1CCC(N2C(=O)c3cc4c(cc3C2=O)CN(C(=O)CN2CCC3(CC2)CC(Oc2ccc([C@@H]5c6ccc(O)cc6CC[C@@H]5c5ccccc5)cc2)C3)C4)C(=O)N1 (stereo partly drawn) [Compound B277, 2-(2,6-dioxopiperidin-3-yl)-6-(2-(2-(4-((1R,2S)-6-hydroxy-2-phenyl-1,2,3,4-tetrahydronaphthalen-1-yl)phenoxy)-7-azaspiro[3.5]nonan-7-yl)acetyl)-6,7-dihydropyrrolo[3,4-f]isoindole-1,3(2H,5H)-dione]
10 to 100 | O=C1CCC(N2C(=O)c3cc4c(cc3C2=O)CN(CC2CCN(C(=O)C3CN(c5ccc([C@@H]6c7ccc(O)cc7CC[C@@H]6c6ccccc6)cc5)C3)CC2)C4)C(=O)N1 (mixture of isomers) [Compound B35, 2-(2,6-dioxopiperidin-3-yl)-6-((1-(1-(4-((1R,2S)-6-hydroxy-2-phenyl-1,2,3,4-tctrahydronaphthalcn-1-yl)phcnyl)azctidinc-3-carbonyl)piperidin-4-yl)methyl)-6,7-dihydropyrrolo[3,4-f]isoindole-1,3(2H,5H)-dione]
10 to 100 | O=C1CCC(N2C(=O)c3cc4c(cc3C2=O)CN(CC2CN(C(=O)C3CCN(c5ccc([C@@H]6c7ccc(O)cc7CC[C@@H]6c6ccccc6)cc5)CC3)C2)C4)C(=O)N1 (mixture of isomers) [Compound B10, 2-(2,6-dioxopiperidin-3-yl)-6-((1-(1-(4-((1R,2S)-6-hydroxy-2-phenyl-1,2,3,4-tetrahydronaphthalen-1-yl)phenyl)piperidine-4-carbonyl)azetidin-3-yl)methyl)-6,7-dihydropyrrolo[3,4-f]isoindole-1,3(2H,5H)-dione]
> 100 | O=C1CCC(N2C(=O)c3cc4c(cc3C2=O)CN(CC2CC3(CCN(C(=O)c5ccc([C@@H]6c7ccc(O)cc7CC[C@@H]6c6ccccc6)cc5)CC3)C2)C4)C(=O)N1 (stereo partly drawn) [Compound B289, 2-(2,6-dioxopiperidin-3-yl)-6-((7-(4-((1R,2S)-6-hydroxy-2-phenyl-1,2,3,4-tetrahydronaphthalen-1-yl)benzoyl)-7-azaspiro[3.5]nonan-2-yl)methyl)-6,7-dihydropyrrolo[3,4-f]isoindole-1,3(2H,5H)-dione]
10 to 100 | O=C1CCC(N2Cc3cc4c(cc3C2=O)CN(C2CCN(CC3CN(c5ccc([C@@H]6c7ccc(O)cc7CC[C@@H]6c6ccc(F)cc6)cc5)C3)CC2)C4)C(=O)N1 (stereo partly drawn) [Compound B72, 3-(6-(1-((1-(4-((1R,2S)-2-(4-fluorophenyl)-6-hydroxy-1,2,3,4-tetrahydronaphthalen-1-yl)phenyl)azetidin-3-yl)methyl)piperidin-4-yl)-1-oxo-3,5,6,7-tetrahydropyrrolo[3,4-f]isoindol-2(1H)-yl)pipcridinc-2,6-dionc]
> 100 | O=C1CCC(N2C(=O)c3cc4c(cc3C2=O)CN(CC(=O)N2CC3(CC(Oc5ccc([C@@H]6c7ccc(O)cc7CC[C@@H]6c6ccccc6)cc5)C3)C2)C4)C(=O)N1 (stereo partly drawn) [Compound B276, 2-(2,6-dioxopiperidin-3-yl)-6-(2-(6-(4-((1R,2S)-6-hydroxy-2-phenyl-1,2,3,4-tetrahydronaphthalen-1-yl)phenoxy)-2-azaspiro[3.3]heptan-2-yl)-2-oxoethyl)-6,7-dihydropyrrolo[3,4-f]isoindole-1,3(2H,5H)-dione]
> 100 | CC1(C(=O)N2CCC(N3Cc4cc5c(cc4C3)C(=O)N(C3CCC(=O)NC3=O)C5=O)CC2)CCN(c2ccc([C@@H]3c4ccc(O)cc4CC[C@@H]3c3ccccc3)cc2)CC1 (stereo partly drawn) [Compound B283, 2-(2,6-dioxopiperidin-3-yl)-6-(1-(1-(4-((1R,2S)-6-hydroxy-2-phenyl-1,2,3,4-tetrahydronaphthalen-1-yl)phenyl)-4-methylpiperidine-4-carbonyl)piperidin-4-yl)-6,7-dihydropyrrolo[3,4-f]isoindole-1,3(2H,5H)-dione]
10 to 100 | O=C1CCC(N2C(=O)c3cc4c(cc3C2=O)CN(CC(=O)N2CCC3(CC2)CCN(c2ccc([C@@H]5c6ccc(O)cc6CC[C@@H]5c5ccccc5)cc2)CC3)CC4)C(=O)N1 (stereo partly drawn) [Compound B194, 2-(2,6-dioxopiperidin-3-yl)-6-(2-(9-(4-((1R,2S)-6-hydroxy-2-phenyl-1,2,3,4-tetrahydronaphthalen-1-yl)phenyl)-3,9-diazaspiro[5.5]undecan-3-yl)-2-oxoethyl)-5,6,7,8-tetrahydro-1H-pyrrolo[3,4-g]isoquinoline-1,3(2H)-dione]

Molecule | DC50 [nM]
O=C1CCC(N2Cc3cc4c(cc3C2=O)CN(C(=O)C2CCC(CN3CC(Oc5ccc([C@@H]6c7ccc(O)cc7CC[C@@H]6c6ccccc6)cc5)C3)CC2)C4)C(=O)N1 (stereo partly drawn) [Compound B286, 3-(6-((1R,4r)-4-((3-(4-((1R,2S)-6-hydroxy-2-phenyl-1,2,3,4-tetrahydronaphthalen-1-yl)phenoxy)azetidin-1-yl)methyl)cyclohexane-1-carbonyl)-1-oxo-3,5,6,7-tetrahydropyrrolo[3,4-f]isoindol-2(1H)-yl)piperidine-2,6-dione] | > 100
O=C1CCC(N2Cc3cc4c(cc3C2=O)C(=O)N(CC2CN(CC3CCN(c5ccc([C@@H]6c7ccc(O)cc7CC[C@@H]6c6ccccc6)cc5)CC3)C2)C4)C(=O)N1 (stereo partly drawn) [Compound B305, 2-(2,6-dioxopiperidin-3-yl)-6-((1-((1-(4-((1R,2S)-6-hydroxy-2-phenyl-1,2,3,4-tetrahydronaphthalen-1-yl)phenyl)piperidin-4-yl)mcthyl)azctidin-3-yl)methyl)-2,3,5,6-tctrahydropyrrolo[3,4-f]isoindole-1,7-dione] | > 100
2-(2,6-dioxopiperidin-3-yl)-6-(1-((1-(4-((1R,2S)-6-hydroxy-2- phenyl-1,2,3,4-tctrahydronaphthalcn-1-yl)phenyl)pipcridin-4- yl)methyl)piperidin-4-yl)-2,3,5,6-tetrahydropyrrolo[3,4- f]isoindole-1,7-dione [Compound B304] | > 100
